System: MC38-HER-2 cells
Conditions: mouse, in vivo

CC(=O)O[C@@]12CO[C@@H]1C[C@H](O)[C@@]1(C)C(=O)[C@H](O)C3=C(C)[C@@H](OC(=O)[C@H](O)[C@@H](NC(=O)OC(C)(C)C)c4ccccc4)C[C@@](O)([C@@H](OC(=O)c4ccccc4)[C@H]21)C3(C)C [Docetaxel, docetaxel]
tumor growth, subset A: modest and transient delay of tumor growth | tumor growth, subset B: had no effect on tumor growth | tumor growth, subset C: had no effect on tumor growth
